“Also recorded” adds a separate entry of the source. Read-outs that look alike come from different tables or passages of the source.
Key:
gravid uteri = assay: Gravid uterine weight after single dose; assay type: in vivo, mouse
Excerpt: (§1) C57BL/6 male and female mice greater than seven weeks old were obtained from Takonic (Germantown, N.Y.). The mice were acclimated for at least five days prior to mating and housed in a twelve hour on and twelve hour off light schedule. The mice were mated in the evenings and vaginal plugs were checked for the next morning. Mating in mice is normally detected by the occurrence of vaginal plugs, which are formed by a mixture of the secretions of the vesicular and coagulating glands of the male and usually fill the vagina from cervix to vulva. The day of plugging was labeled Embryonic day 0 (E0). All animal studies were conducted according to the protocols approved by the Animal Ethics Committee of Children's Hospital. Plugged female mice were randomized and received either AGM-1470 30 mg/kg s.c. or saline on E1, 7, or 14. The dependence of female reproductive system on angiogenesis was examined by treating sexually mature inseminated and cycling mice with selective angiogenesis inhibitor AGM-1470.
Gravid uteri and ovaries were resected enbloc and weighed. Gravid uterine weight (grams wet weight, mean SE, n=3/day) in the control group increased exponentially from E6 (0.20±0.01), to E9 (0.53±0.05), E13 (3.78±0.36), and E18 (12.87±0.62). Gravid uterine weights from mice treated with AGM-1470 on E1 had no weight increase after E9 [E6 (0.29±0.01), E9 (0.63±0.01), E13 (0.72±0.08, p<0.05), and E18 (0.68±0.02, p<0.05)]. Gravid uterine weights from mice treated with AGM-1470 on E7 increased initially but then regresses after E13 [E9 (0.71±0.01), E13 (2.03±0.14, p<0.05), and E18 (1.08±0.06, p<0.05)].

inseminated mice [1] = assay: Inseminated mice, single low dose 3 mg/kg; assay type: in vivo, mouse
Procedure: The same protocol was followed as was performed for AGM-1470 30 mg/kg except mice were injected with only 3 mg/kg AGM-1470 on E1 or E7. The 10-fold lower dose was tested to determine if a dose in which the fetuses come to term would produce birth defects. Mice were sacrificed at E18 and fetal viability, number of implantation cites, crown-rump length, and tail length were assessed.

[2] = 30 mg/kg s.c. every other day, greater than 100 days of therapy; cited from earlier work
female C57BL/6 mice = assay type: in vivo, mouse
Procedure: Group housed female C57BL/6 mice were treated with a single injection of AGM-1470 (30 mg/kg, s.c.) and paired with male breeders at various times after treatment. Treatment groups are designated as the number of days between plugging and treatment. The 6 control groups are combined and expressed as the mean±SD. The number of matings in per group is listed below each labeled group.
The experiment was designed to detect how long before mating a single dose of AGM-1470 might be effective. Sexually mature female mice were treated with a single dose of AGM-1470 (30 mg/kg, s.c.) up to five days prior to mating [designated E(−5), E(−4), E(−3), E(−2), E(−1), or E0 with the date of plugging being E0]. For treatments on E(−5) through E(−1), group-housed female mice were injected with AGM-1470 and then individually paired with male breeders at varying times after injection. For E0 treatment, females were paired with males and then plugged females were injected. Pregnancies were monitored by maternal weights and allowed to go to term. The contraceptive efficacy of a single dose of AGM-1470 on each of these days, calculated by the percentage of matings resulting in any viable deliveries […]. The contraceptive efficacy of a single dose of AGM-1470 on each of these days, expressed as the percentage of matings resulting in viable deliveries is illustrated in FIG. 8.

inseminated mice [3] = assay: Gross morphology and hematoxylin/eosin histology of gravid uteri, embryos and ovaries; assay type: in vivo, mouse
Procedure: FIGS. 1A-1I show the gross morphology of gravid mouse uteri. Inseminated mice were treated with AGM-1470 30 mg/kg s.c. or saline on Embryonic day 1 (E1) or E7, and mice were sacrificed at E9, 13 or 18. FIG. 1A, 1B, and 1C show the normal pattern of growth of fetuses on E9, E13 and E18.
FIGS. 2A-2F show hematoxylin/eosin staining of mouse embryos on E9. Inseminated mice were treated with AGM-1470 […] s.c. or saline on E1 or E7, and mice were sacrificed at E9. Uteri were resected and stained with hematoxylin/eosin as described in the material and methods section. […] (P−placenta, D=decidua).
Gravid uteri and ovaries were resected enbloc, weighed, fixed and Carnoy's fixative, and embedded in paraffin according to standard histological techniques. Sections were cut at 6 to 10 micrometers and stained with hematoxylin and eosin. When AGM-1470 was injected on E14, fetuses were allowed to come to term.

inseminated mice [4] = assay: Number of implantation sites after single dose pre-implantation; assay type: in vivo, mouse; settings: 30 mg/kg on E1, n=16
Procedure: The same procedures were followed as described above in Example 2 to administer 30 mg/kg AGM-1470 in single doses on the specified days. The mice were sacrificed and the number of implantation cites were counted. There was no decrease in the number of implantation cites when AGM-1470 was given on E1 [control mice had 8±0.2 implants (n=29), mice injected with AGM-1470 on E1 had 9±0.4 implants (n=16)].

inseminated C57BL/6 mice = assay type: in vivo, mouse
Excerpt: as §1
Mice were sacrificed on either E6, 9, 13 or 18 (one day prior to term gestation). Fetal viability was assessed and statistical analysis was performed with a Fisher's Exact Test.

CO[C@@H]1[C@H](OC(=O)NC(=O)CCl)CC[C@]2(CO2)[C@H]1[C@@]1(C)O[C@@H]1CC=C(C)C [AGM-1470, O-chloroacetylcarbamoyl fumagillol]
gravid uterine weight (gravid uteri; treated on E1, weighed E6, n=3): 0.29±0.01 grams wet weight
gravid uterine weight (gravid uteri; treated on E1, weighed E9, n=3): 0.63±0.01 grams wet weight
gravid uterine weight (gravid uteri; treated on E1, weighed E13, n=3): 0.72±0.08 grams wet weight
gravid uterine weight (gravid uteri; treated on E1, weighed E18, n=3): 0.68±0.02 grams wet weight
gravid uterine weight (gravid uteri; treated on E7, weighed E9, n=3): 0.71±0.01 grams wet weight
gravid uterine weight (gravid uteri; treated on E7, weighed E13, n=3): 2.03±0.14 grams wet weight
gravid uterine weight (gravid uteri; treated on E7, weighed E18, n=3): 1.08±0.06 grams wet weight
reduction of crown-rump length on E18 relative to control (inseminated mice [1]; 3 mg/kg on E1): 36%
reduction of tail length relative to control (inseminated mice [1]; 3 mg/kg on E1): 43%
fetal viability at E18 (inseminated mice [1]; 3 mg/kg on E1 (n=21 fetuses) or E7 (n=8 fetuses)): viable
crown-rump length on E18 (inseminated mice [1]; 3 mg/kg on E1, n=7 embryos): 13.0±0.1 mm
birth defects (inseminated mice [1]; 3 mg/kg on E1 or E7, fetuses at E18): no birth defects
reduction of crown-rump length on E18 relative to control (inseminated mice [1]; 3 mg/kg on E7): 19%
reduction of tail length relative to control (inseminated mice [1]; 3 mg/kg on E7): 12%
crown-rump length on E18 (inseminated mice [1]; 3 mg/kg on E7, n=7 embryos): 16.5±0.5 mm
tail length on E18 (inseminated mice [1]; 3 mg/kg on E7, n=7 embryos): 10.0±0.1 mm
toxicity of dosing schedule [2]: no evident toxicity
effect on live births (female C57BL/6 mice; single dose 30 mg/kg s.c. on E0): completely block live births
effect on live births (female C57BL/6 mice; single dose 30 mg/kg s.c. on E(-1)): completely block live births
reduction of percentage of animals with successful pregnancies (female C57BL/6 mice; single dose 30 mg/kg s.c. on E(-2)): 80%
frequency of litters (female C57BL/6 mice; single dose 30 mg/kg s.c. three to five days prior to mating): same frequency as controls
number of dead births relative to controls (female C57BL/6 mice; single dose 30 mg/kg s.c., any time point E(-5) to E0): No differences
percentage of mated animals with viable births (female C57BL/6 mice; single dose 30 mg/kg s.c., treatments on E0, E-1 and E-2 (FIG. 8)): inhibition of viable births
placental development (histology) (inseminated mice [3]; 30 mg/kg on E1): failure of placental development
placental development (histology) (inseminated mice [3]; 30 mg/kg on E7): inhibition of placental and fetal development; also recorded: decrease in nucleated red blood cells and labyrinth structure in the placenta
gross morphology of gravid uteri (inseminated mice [3]; 30 mg/kg s.c. on E7): hemorrhage around the implantation sites by E13; also recorded: resorption by E18
fetal histology on E9 (inseminated mice [3]; both treated groups (E1 or E7)): Fetal disorganization
embryo histology on E9 (inseminated mice [3]; injected on E1): small, disorganized embryo
nucleated red blood cells in E9 embryos (inseminated mice [3]; injected on E7): reduced nucleated red blood cells in the embryo; also recorded: marked decrease in nucleated red blood cells
histology of the ovaries (inseminated mice [3]; single dose on E1 or E7, all time points): appeared normal
gross morphology of gravid uteri (inseminated mice [3]; treated on E1, after E9): failure of further growth with resorption
number of implantation sites (inseminated mice [4]): 9±0.4 implants
toxicity to the pregnant mothers (inseminated C57BL/6 mice; 30 mg/kg single dose): no signs of toxicity
birth defects (inseminated C57BL/6 mice; drug given to pregnant mice during pregnancy): birth defects were not documented
fetal resorption on E18 (inseminated C57BL/6 mice; single dose 30 mg/kg s.c. on E1 (pre-implantation), n=69 embryos): 100%
fetal resorption on E18 (inseminated C57BL/6 mice; single dose 30 mg/kg s.c. on E7 (post-implantation), n=36): 100%
litters (inseminated C57BL/6 mice; single dose 30 mg/kg s.c. on E14, n=46): normal litters

— US6441027B1, “Method of regulating the female reproductive system through angiogenesis inhibitors” (Children's Medical Center Corporation, priority 1996, dated 2002)
